Data as given in patent US10219516B2, “Molecules having pesticidal utility, and intermediates, compositions, and processes, related thereto” (priority 2015, dated 2019).
Read-outs that look alike come from different tables or passages of the source.

Columns and labels:
Type in all cases: in vivo
[1] = system: Cabbage Looper (Trichoplusia ni, TRIPNI); assay: Bioassay on Cabbage Looper (CL), 128-well diet tray assay; conditions: Trichoplusia ni
Outline: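 Using eight wells per molecule, artificial diet was dosed at 50 μg/cm^2 with compound in 90:10 acetone-water and dried before one to five second-instar larvae were added per well. Covered vented trays were kept at 25° C. with 14:10 light-dark for five to seven days, then per-well percent mortality was recorded and averaged.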

[2] = system: Yellow Fever Mosquito (Aedes aegypti, AEDSAE); assay: Bioassay on Yellow Fever Mosquito (YFM), 96-well plate larval assay; conditions: for YFM (Biological Results, rating): Species YFM (Yellow Fever Mosquito); for YFM rating: Yellow Fever Mosquito, 96-well plate larval assay
Outline: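 Aedes aegypti larvae (about 1 day old) in liver-powder water were added to plates dispensed from DMSO master plates (4000 ppm stock) diluted with 90:10 water/acetone; six replicate plates per master. Lidded plates were held at room temperature for 3 days, then each well was scored for mortality.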

[3] = system: Beet Armyworm (Spodoptera exigua, LAPHEG); assay: Bioassay on Beet Armyworm (BAW), 128-well diet tray assay
Outline: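 Diet in each of eight wells received 50 μg/cm^2 of test molecule (90:10 acetone-water, dried), then one to five second-instar larvae were added. Mortality (%) was scored after five to seven days at 25° C. under 14:10 light-dark and averaged across the wells.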

[4] = Species CL (Cabbage Looper), read-out: CL (Biological Results, rating)
[5] = Species BAW (Beet Armyworm), read-out: BAW (Biological Results, rating)
[6] = Cabbage Looper, 128-well diet tray assay, read-out: CL rating
[7] = Beet Armyworm, 128-well diet tray assay, read-out: BAW rating

SMILES	pest or weed control at 50 µg/cm2 [1, 4]	YFM (Biological Results, rating) [2]	pest or weed control at 50 µg/cm2 [3, 5]	pest or weed control at 50 µg/cm2 [1, 6]	YFM rating [2]	pest or weed control at 50 µg/cm2 [3, 7]
O=C(Nc1ccc(F)cc1F)c1cc(NC(=O)[C@@H]2[C@@H](c3ccc(Cl)c(Cl)c3)C2(Cl)Cl)ccc1Cl [F210, 2-Chloro-5-((1S,3S)-2,2-dichloro-3-(3,4-dichlorophenyl)cyclopropane-1-carboxamido)-N-(2,4-difluorophenyl)benzamide]	50 to 100%	A (80-100)	50 to 100%			
CC(=O)Nc1ccc(NC(=O)c2cc(NC(=O)[C@H]3[C@H](c4cc(Cl)c(Cl)c(Cl)c4)C3(Cl)Cl)ccc2Cl)c(F)c1 (relative stereo) [PF42, trans-N-(4-Acetamido-2-fluorophenyl)-2-chloro-5-(2,2-dichloro-3-(3,4,5-trichlorophenyl)cyclopropane-1-carboxamido)benzamide]				50 to 100%	A (80-100)	50 to 100%
O=C(Nc1ccc2[nH]cnc2c1)c1cc(NC(=O)C2C(c3cc(Cl)cc(Cl)c3)C2(Cl)Cl)ccc1Cl (stereo not drawn) [F456, N-(1H-Benzo[d]imidazol-5-yl)-2-chloro-5-(trans)-2,2-dichloro-3-(3,5-dichlorophenyl)cyclopropane-1-carboxamido)benzamide]				50 to 100%	B (More than 0-Less than 80)	50 to 100%
Nc1ccc(F)cc1NC(=O)c1cc(NC(=O)[C@H]2[C@H](c3ccc(F)c(Cl)c3)C2(Cl)Cl)ccc1Cl [F421, N-(2-Amino-5-fluorophenyl)-2-chloro-5-((1R,3R)-2,2-dichloro-3-(3-chloro-4-fluorophenyl)cyclopropane-1-carboxamido)benzamide]				50 to 100%	A (80-100)	50 to 100%
Nc1ccc(F)c(NC(=O)c2cc(NC(=O)[C@H]3[C@H](c4ccc(Cl)c(Cl)c4)C3(Cl)Cl)ccc2Cl)c1 [F428, N-(5-Amino-2-fluorophenyl)-2-chloro-5-((1R,3R)-2,2-dichloro-3-(3,4-dichlorophenyl)cyclopropane-1-carboxamido)benzamide]				50 to 100%	A (80-100)	50 to 100%
Nc1cccc(NC(=O)c2cc(NC(=O)[C@H]3[C@H](c4cc(Cl)cc(Cl)c4)C3(Cl)Cl)ccc2Cl)c1 (relative stereo) [F201, trans-N-(3-Aminophenyl)-2-chloro-5-(2,2-dichloro-3-(3,5-dichlorophenyl)cyclopropane-1-carboxamido)benzamide]	50 to 100%	A (80-100)	50 to 100%			
C=C(F)c1cc(Cl)cc([C@H]2[C@H](C(=O)Nc3ccc(Cl)c(C(=O)Nc4ccc(F)cc4C#N)c3)C2(Cl)Cl)c1 (relative stereo) [F387, 2-Chloro-N-(2-cyano-4-fluorophenyl)-5-(trans-2,2-dichloro-3-(3-chloro-5-(1-fluorovinyl)phenyl)cyclopropane-1-carboxamido)benzamide]				50 to 100%	A (80-100)	50 to 100%
CN(C(=O)c1cc(NC(=O)[C@H]2[C@H](c3cc(Cl)c(Cl)c(Cl)c3)C2(Cl)Cl)ccc1Cl)c1ccc(F)cc1C#N (relative stereo) [F244, trans-2-Chloro-N-(2-cyano-4-fluorophenyl)-5-(2,2-dichloro-3-(3,4,5-trichlorophenyl)cyclopropane-1-carboxamido)-N-methylbenzamide]	50 to 100%	A (80-100)	50 to 100%			
O=C(Nc1ccc(Br)c(F)n1)c1cc(NC(=O)[C@H]2[C@H](c3cc(Cl)cc(Cl)c3)C2(Cl)Cl)ccc1Cl (relative stereo) [F357, N-(5-Bromo-6-fluoropyridin-2-yl)-2-chloro-5-(trans-2,2-dichloro-3-(3,5-dichlorophenyl)cyclopropane-1-carboxamido)benzamide]	50 to 100%	A (80-100)	50 to 100%			
N#Cc1cc(Cl)cc([C@H]2[C@H](C(=O)Nc3ccc(Cl)c(C(=O)Nc4ccc(F)cc4C#N)c3)C2(Cl)Cl)c1 (relative stereo) [F343, trans-2-Chloro-N-(2-cyano-4-fluorophenyl)-5-(2,2-dichloro-3-(3-chloro-5-cyanophenyl)cyclopropane-1-carboxamido)benzamide]	50 to 100%	A (80-100)	50 to 100%			
O=C(Nc1ncc(F)cc1F)c1cc(NC(=O)[C@H]2[C@H](c3ccc(Cl)c(C(F)F)c3)C2(Cl)Cl)ccc1Cl (relative stereo) [F585, 2-Chloro-5-(trans-2,2-dichloro-3-(4-chloro-3-(difluoromethyl)phenyl)cyclopropane-1-carboxamido)-N-(3,5-difluoropyridin-2-yl)benzamide]				50 to 100%	A (80-100)	50 to 100%
COc1cc(NC(=O)c2cc(NC(=O)[C@H]3[C@H](c4cc(Cl)cc(Cl)c4)C3(Cl)Cl)ccc2Cl)ccc1C#N (relative stereo) [F234, 2-Chloro-N-(4-cyano-3-methoxyphenyl)-5-(trans-2,2-dichloro-3-(3,5-dichlorophenyl)cyclopropane-1-carboxamido)benzamide]	50 to 100%	A (80-100)	50 to 100%			
Cc1c(F)ccc(NC(=O)c2cc(NC(=O)[C@H]3[C@H](c4cc(Cl)cc(Cl)c4)C3(Cl)Cl)ccc2Cl)c1C (relative stereo) [PF54, trans-2-Chloro-5-(2,2-dichloro-3-(3,5-dichlorophenyl)cyclopropane-1-carboxamido)-N-(4-fluoro-2,3-dimethylphenyl)benzamide]				50 to 100%	A (80-100)	50 to 100%
C=CC(=O)Nc1ccc(NC(=O)c2cc(NC(=O)[C@H]3[C@H](c4cc(Cl)cc(Cl)c4)C3(Cl)Cl)ccc2Cl)cc1 (relative stereo) [PF26, trans-N-(4-Acrylamidophenyl)-2-chloro-5-(2,2-dichloro-3-(3,5-dichlorophenyl)cyclopropane-1-carboxamido)benzamide]				50 to 100%	A (80-100)	50 to 100%
O=C(Nc1ccncn1)c1cc(NC(=O)[C@H]2[C@H](c3cc(Cl)cc(Cl)c3)C2(Cl)Cl)ccc1Cl (relative stereo) [F296, trans-2-Chloro-5-(2,2-dichloro-3-(3,5-dichlorophenyl)cyclopropane-1-carboxamido)-N-(pyrimidin-4-yl)benzamide]	50 to 100%	A (80-100)	50 to 100%			
O=C(Nc1ncccn1)c1cc(NC(=O)[C@H]2[C@H](c3cc(Cl)cc(Cl)c3)C2(Cl)Cl)ccc1Cl (relative stereo) [F294, trans-2-Chloro-5-(2,2-dichloro-3-(3,5-dichlorophenyl)cyclopropane-1-carboxamido)-N-(pyrimidin-2-yl)benzamide]	50 to 100%	A (80-100)	50 to 100%			
CN1C(=O)CCc2cc(NC(=O)c3cc(NC(=O)[C@H]4[C@H](c5cc(Cl)cc(Cl)c5)C4(Cl)Cl)ccc3Cl)ccc21 (relative stereo) [F490, 2-chloro-5-(trans)-(2,2-dichloro-3-(3,5-dichlorophenyl)cyclopropane-1-carboxamido)-N-(1-methyl-2-oxo-1,2,3,4-tetrahydroquinolin-6-yl)benzamide]				50 to 100%	A (80-100)	50 to 100%
O=C(Nc1ncc(F)cc1F)c1cc(NC(=O)[C@H]2[C@H](c3cccc(C(F)F)c3)C2(Cl)Cl)ccc1Cl (relative stereo) [F590, 2-Chloro-5-(trans-2,2-dichloro-3-(3-(difluoromethyl)phenyl)cyclopropane-1-carboxamido)-N-(3,5-difluoropyridin-2-yl)benzamide]				50 to 100%	A (80-100)	50 to 100%
O=C(Nc1ccc(F)cc1F)c1cc(NC(=O)[C@H]2[C@H](c3cc(F)c(Br)c(F)c3)C2(Cl)Cl)ccc1Cl (relative stereo) [F541, 5-(trans-3-(4-Bromo-3,5-difluorophenyl)-2,2-dichlorocyclopropane-1-carboxamido)-2-chloro-N-(2,4-difluorophenyl)benzamide]				50 to 100%	A (80-100)	50 to 100%
O=C(Nc1ccc(F)cc1)c1cc(NC(=O)C2C(c3cc(Cl)cc(Cl)c3)[C@H]2Cl)ccc1Cl (stereo partly drawn) [F213, 2-Chloro-5-((2R)-2-chloro-3-(3,5-dichlorophenyl)cyclopropane-1-carboxamido)-N-(4-fluorophenyl)benzamide]	50 to 100%	A (80-100)	50 to 100%			
O=C(Nc1ccc2nccn2c1)c1cc(NC(=O)C2C(c3cc(Cl)cc(Cl)c3)C2(Cl)Cl)ccc1Cl (stereo not drawn) [F475, 2-Chloro-5-(trans)-2,2-dichloro-3-(3,5-dichlorophenyl)cyclopropane-1-carboxamido)-N-(imidazo[1,2-a]pyridin-6-yl)benzamide]				50 to 100%	A (80-100)	50 to 100%
